Source: PubChem BioAssay AID743229 (The Scripps Research Institute Molecular Screening Center, 2013)

molecular target: Trace amine-associated receptor 1 (Homo sapiens) (UniProt Q96RJ0); experiment: TAAR1 activation concentration-response – cell-based, fluorescence, late stage, dose response (AID 743229); conditions: TAAR1-expressing cells, fluorescence agonist read-out
Sequence (Q96RJ0 whole entry, looked up, the tested form may be a part): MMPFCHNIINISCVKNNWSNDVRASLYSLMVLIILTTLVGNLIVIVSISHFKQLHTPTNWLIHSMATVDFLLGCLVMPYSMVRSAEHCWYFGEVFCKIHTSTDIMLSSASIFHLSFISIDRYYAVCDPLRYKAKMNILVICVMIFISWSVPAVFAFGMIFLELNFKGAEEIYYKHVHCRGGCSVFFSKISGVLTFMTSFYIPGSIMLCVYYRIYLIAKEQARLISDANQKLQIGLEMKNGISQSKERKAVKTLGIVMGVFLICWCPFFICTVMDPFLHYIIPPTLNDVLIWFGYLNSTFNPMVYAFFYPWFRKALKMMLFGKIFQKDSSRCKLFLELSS

EC50, active:
O=C(CCN1CCc2ccccc2CC1)c1ccc2c(c1)OCCO2 340 nM
CC(=NCCc1ccccc1)C1CCOC1=O (centres undefined) 36.5 nM
O=C(Nc1cccnc1)Nc1cccc(F)c1 3310 nM
Cc1cc(N(C)C)nc(Nc2ccccc2)n1 182 nM
CCOC(=O)C(NC(=O)CC)(N1CCc2ccccc2C1)C(F)(F)F (centres undefined) 42.4 nM
OCCNc1nc(Nc2cccc(O)c2)nc2ccccc12 257 nM
O=C(CCCCl)N1CCc2[nH]c3ccccc3c2C1 101 nM
COc1cc(C(=O)CCN2CCC(c3ccccc3)C2)cc(OC)c1OC (centres undefined) 85.9 nM
O=C(Nc1ccccc1)Nc1ccncc1 807 nM
c1ccc2c3c([nH]c2c1)CCNC3 294 nM
c1ccc2c(c1)CCN(c1nc3cc4c(cc3s1)OCO4)C2 278 nM
Nc1nc(Nc2ccccc2)nc2ccccc12 210 nM
O=C(CCN1CCC(c2ccccc2)C1)c1cccs1 (centres undefined) 108 nM
CCOC(=O)C(NC(C)=O)(N1CCc2ccccc2C1)C(F)(F)F (centres undefined) 75 nM
Cc1cc(C)n(C(CC(=O)N2CCc3ccccc3C2)C(=O)O)n1 (centres undefined) 170 nM
NC(N)=NN=Cc1c(Cl)cccc1Cl 219 nM
c1ccc(CCn2nnnc2C(c2cccs2)N2CCN(Cc3ccc4c(c3)OCO4)CC2)cc1 (centres undefined) 233 nM
O=C(Nc1ccncc1)Nc1ccc(F)cc1 866 nM
O=C(CCN1CCC(c2ccccc2)C1)c1ccc2c(c1)OCCO2 (centres undefined) 263 nM
O=C(C(=O)N1CCc2ccccc2C1)c1cn(CC(=O)N2CCCCC2)c2ccccc12 781 nM
Nc1nc(Nc2cccc(F)c2)nc2ccccc12 346 nM
CC1(C)CCCN(C(=O)c2coc(=O)c(Br)c2)C1 481 nM
OCCNc1nc(Nc2ccc(O)cc2)nc2ccccc12 804 nM
Cc1ccc(NC(=O)CCN2CCc3ccccc3C2)cc1 1270 nM
